# What was measured:
# Assay type in all cases: cell-based
# F culmorum [1] = test: Specific antifungal activity of Rs-AFP2 isoforms in SMF− and SMF+ media; set-up: IC50 SMF− / IC50 SMF+: unit not given here; details: for RELATIVE SPECIFIC ACTIVITY (%) IN MEDIUM SMF+ / RELATIVE SPECIFIC ACTIVITY (%) IN MEDIUM SMF−: 1/IC50 of mutant divided by that of yRs-AFP2 x 100, 48 hour incubation, preliminary tests; for RELATIVE SPECIFIC ACTIVITY (%) IN MEDIUM SMF+: SMF with 1 mM CaCl2 and 50 mM KCl; for RELATIVE SPECIFIC ACTIVITY (%) IN MEDIUM SMF−: low ionic strength medium; for IC50 SMF+ / IC50 SMF−: 72 hours growth, triplicate; for IC50 SMF+: high salt medium (1 mM CaCl2, 50 mM KCl); for IC50 SMF− / effect of substitution on antifungal activity in SMF−, in words: low salt medium; for effect of substitution on antifungal activity in SMF+, in words / effect of substitution on antifungal activity in SMF−, in words: Table 2 tests; for effect of substitution on antifungal activity in SMF+, in words: high salt medium; for relative specific antifungal activity (1/IC50), FIG. 6, in words: medium SMF+, Rs-AFP2 set at 100
# Protocol: For each isoform, two independent purifications were carried out and the antifungal activity was determined in duplicate using F culmorum as a test fungus in two different media: a low ionic strength medium called SMF-(Terras et al, 1992, J Biol Chem, 267:15301-15309) and the same medium supplemented with 1 mM CaCl2 and 50 mM KCl called SMF+. The presence of salts in the test medium, especially salts with divalent cations, reduces the specific activity of Rs-AFP2. Seed-purified as well as yeast-expressed wild type Rs-AFP2 served as a control in the assays.
# The relative specific activity is expressed as the specific activity of the mutant divided by the specific activity of yRs-AFP2 and multiplied by 100. […] The specific activity was measured in medium SMF−and SMF+.
# Deviations are given as standard error of the mean (sem) based on the triplicate experiments. In SMF−, the medium without added salts, most of the derivatives show no decrease or only a minor decrease in antifungal activity, while in SMF+, the medium with added salts, there is a significant decrease in antifungal activity for several Rs-AFP2 isoforms.
# F culmorum [2] = test: Growth inhibition in SMF with varying CaCl2 or KCl (FIG. 7); details: for reduction of antifungal activity by cations, compared with wild-type Rs-AFP2: FIG. 7; for activity in the presence of 100 mM KCl: SMF with 100 mM KCl, FIG. 7, 10 μg/ml; for growth inhibition in the presence of 5mM CaCl2: protein 10 μg/ml, SMF with 5mM CaCl2
# Protocol: Their antifungal activity was determined in SMF with increasing Ca^2+ or K^+ concentration and compared with that of plant-derivable wild type Rs-AFP2 (isolated from seed) as well as yeast purified Rs-AFP2. FIG. 7 is a graph of the percentage growth inhibition of F culmorum caused by 10 μg/ml of yeast-purified Rs-AFP2 (SEQ ID NO: 20) (open circles), seed-purified Rs-AFP2 (SEQ ID NO: 77) (closed circles), Rs-AFP2/G9R (SEQ ID NO: 38) (squares) and Rs-AFP2/V39R (SEQ ID NO: 43) (triangles) in a medium consisting of SMF with varying concentrations of CaCl2 (panel A) and KCl (panel B).
# Fusarium culmorum = test: Antifungal activity in three media differing in ionic strength (Table 3); details: for IC50 VALUES, F culmorum, SMF + 1 mM CaCl2/50 mM KCl / IC50 VALUES, F culmorum, SMF + 5 mM CaCl2/50 mM KCl / IC50 VALUES, F culmorum, SMF: 96 hours; for fold activity relative to Rs-AFP2 against F culmorum: SMF plus 1 mM CaCl2 and 50 mM KCl
# Protocol: (§1) The antifungal activity of the G9R and V39R Rs-AFP2 isoforms was also assessed on a set of seven different phytopathogenic fungi in three media differing in ionic strength: SMF−, SMF plus 1 mM CaCl2 and 50 mM KCl, and SMF plus 5 mM CaCl2 and 50 mM KCl. The fungi tested were: Alternaria brassicicola, Ascochyta pisi, Botrytis cinerea, Fusarium culmorum, Nectria haematococca, Phoma betae and Verticillium dahliae.
# Nectria haematococca = test: as above; details: for IC50 VALUES, N haematococca, SMF + 1 mM CaCl2/50 mM KCl / IC50 VALUES, N haematococca, SMF + 5 mM CaCl2/50 mM KCl / IC50 VALUES, N haematococca, SMF: 72 hours; for fold activity relative to Rs-AFP2 against N haematococca: SMF plus 1 mM CaCl2 and 50 mM KCl
# Protocol: as §1
# Alternaria brassicicola = test: as above; details: for IC50 VALUES, A brassicicola, SMF + 1 mM CaCl2/50 mM KCl / IC50 VALUES, A brassicicola, SMF + 5 mM CaCl2/50 mM KCl / IC50 VALUES, A brassicicola, SMF: 72 hours; for activity against A brassicola compared with Rs-AFP2, in words: Table 3 data
# Protocol: as §1
# Botrytis cinerea = test: as above; details: for IC50 VALUES, B cinerea, SMF + 1 mM CaCl2/50 mM KCl / IC50 VALUES, B cinerea, SMF + 5 mM CaCl2/50 mM KCl / IC50 VALUES, B cinerea, SMF: 72 hours; for activity against B cinerea compared with Rs-AFP2, in words: Table 3 data
# Protocol: as §1
# Ascochyta pisi = test: as above; details: for IC50 VALUES, A pisi, SMF + 1 mM CaCl2/50 mM KCl / IC50 VALUES, A pisi, SMF + 5 mM CaCl2/50 mM KCl / IC50 VALUES, A pisi, SMF: 72 hours; for activity against A pisi compared with Rs-AFP2, in words: Table 3 data
# Protocol: as §1
# Phoma betae = test: as above; details: 72 hours
# Protocol: as §1
# Verticillium dahliae = test: as above; details: for IC50 VALUES, V dahliae, SMF + 1 mM CaCl2/50 mM KCl / IC50 VALUES, V dahliae, SMF + 5 mM CaCl2/50 mM KCl / IC50 VALUES, V dahliae, SMF: 96 hours; for fold activity relative to Rs-AFP2 against V dahliae: SMF plus 1 mM CaCl2 and 50 mM KCl
# Protocol: as §1
Substance,RELATIVE SPECIFIC ACTIVITY (%) IN MEDIUM SMF+ (F culmorum [1]),RELATIVE SPECIFIC ACTIVITY (%) IN MEDIUM SMF− (F culmorum [1]),IC50 SMF+ (F culmorum [1]),IC50 SMF− (F culmorum [1]),antifungal activity in SMF+ relative to wild-type Rs-AFP2 (F culmorum [1]),"effect of substitution on antifungal activity in SMF+, in words (F culmorum [1])","effect of substitution on antifungal activity in SMF−, in words (F culmorum [1])","relative specific antifungal activity (1/IC50), FIG. 6, in words (F culmorum [1])","reduction of antifungal activity by cations, compared with wild-type Rs-AFP2 (F culmorum [2])",activity in the presence of 100 mM KCl (F culmorum [2]),growth inhibition in the presence of 5mM CaCl2 (F culmorum [2]),"IC50 VALUES, F culmorum, SMF + 1 mM CaCl2/50 mM KCl (Fusarium culmorum)","IC50 VALUES, F culmorum, SMF + 5 mM CaCl2/50 mM KCl (Fusarium culmorum)",fold activity relative to Rs-AFP2 against F culmorum (Fusarium culmorum),"IC50 VALUES, F culmorum, SMF (Fusarium culmorum)","IC50 VALUES, N haematococca, SMF + 1 mM CaCl2/50 mM KCl (Nectria haematococca)","IC50 VALUES, N haematococca, SMF + 5 mM CaCl2/50 mM KCl (Nectria haematococca)",fold activity relative to Rs-AFP2 against N haematococca (Nectria haematococca),"IC50 VALUES, N haematococca, SMF (Nectria haematococca)","IC50 VALUES, A brassicicola, SMF + 1 mM CaCl2/50 mM KCl (Alternaria brassicicola)",also measured
"yRs-AFP2/G9R: yeast-expressed Rs-AFP2 isoform, position 9 glycine to arginine (QKLCQRPSRTWSGVCGNNNACKNQCIRLEKARHGSCNYVFPAHKCICYFPC; listed as Raphanus sativus)",285%,116%,3.3,3.0,approximately two-fold higher,increased antifungal activity,little effect on the antifungal activity,particularly active,less reduced by the presence of cations,fully inhibitory,complete inhibition,1.5 µg/mL,7.2 µg/mL,approximately three-fold more active,2.2 µg/mL,16.0 µg/mL,100 µg/mL,approximately three-fold more active,2.0 µg/mL,>50 µg/mL,"antifungal activity compared with yRs-AFP2 in high salt (SMF+), in words (F culmorum [1]; Table 1 tests): approximately three times more active than yRs-AFP2; antifungal activity compared with yRs-AFP2 in low salt (SMF−), in words (F culmorum [1]; Table 1 tests): not so significantly different in low salt; IC50 VALUES, A brassicicola, SMF + 5 mM CaCl2/50 mM KCl (Alternaria brassicicola): >100 µg/mL; IC50 VALUES, A brassicicola, SMF (Alternaria brassicicola): 2.6 µg/mL; activity against A brassicola compared with Rs-AFP2, in words (Alternaria brassicicola): comparable to the activity of Rs-AFP2; IC50 VALUES, B cinerea, SMF + 1 mM CaCl2/50 mM KCl (Botrytis cinerea): >50 µg/mL; IC50 VALUES, B cinerea, SMF + 5 mM CaCl2/50 mM KCl (Botrytis cinerea): >100 µg/mL; IC50 VALUES, B cinerea, SMF (Botrytis cinerea): 1.9 µg/mL; activity against B cinerea compared with Rs-AFP2, in words (Botrytis cinerea): comparable to the activity of Rs-AFP2; IC50 VALUES, A pisi, SMF + 1 mM CaCl2/50 mM KCl (Ascochyta pisi): >50 µg/mL; IC50 VALUES, A pisi, SMF + 5 mM CaCl2/50 mM KCl (Ascochyta pisi): >100 µg/mL; IC50 VALUES, A pisi, SMF (Ascochyta pisi): 1.6 µg/mL; activity against A pisi compared with Rs-AFP2, in words (Ascochyta pisi): comparable to the activity of Rs-AFP2; IC50 VALUES, P betae, SMF + 1 mM CaCl2/50 mM KCl (Phoma betae): 2.50 µg/mL; IC50 VALUES, P betae, SMF + 5 mM CaCl2/50 mM KCl (Phoma betae): >100 µg/mL; IC50 VALUES, P betae, SMF (Phoma betae): 2.0 µg/mL; IC50 VALUES, V dahliae, SMF + 1 mM CaCl2/50 mM KCl (Verticillium dahliae): 4.0 µg/mL; IC50 VALUES, V dahliae, SMF + 5 mM CaCl2/50 mM KCl (Verticillium dahliae): 17.0 µg/mL; fold activity relative to Rs-AFP2 against V dahliae (Verticillium dahliae): approximately three-fold more active; IC50 VALUES, V dahliae, SMF (Verticillium dahliae): 0.5 µg/mL"
"yRs-AFP2/V39R: yeast-expressed Rs-AFP2 isoform, position 39 valine to arginine (QKLCQRPSGTWSGVCGNNNACKNQCIRLEKARHGSCNYRFPAHKCICYFPC; listed as Raphanus sativus)",114%,74%,3.2,4.0,approximately two-fold higher,increased antifungal activity,little effect on the antifungal activity,particularly active,less reduced by the presence of cations,fully inhibitory,complete inhibition,2.3 µg/mL,7.0 µg/mL,approximately two-fold more active,2.2 µg/mL,9.0 µg/mL,62.0 µg/mL,five-fold more active,2.1 µg/mL,50 µg/mL,"antifungal activity compared with yRs-AFP2, in words (F culmorum [1]; Table 1 tests, SMF− and SMF+): maintain their antifungal activity; IC50 VALUES, A brassicicola, SMF + 5 mM CaCl2/50 mM KCl (Alternaria brassicicola): >100 µg/mL; IC50 VALUES, A brassicicola, SMF (Alternaria brassicicola): 2.5 µg/mL; activity against A brassicola compared with Rs-AFP2, in words (Alternaria brassicicola): comparable to the activity of Rs-AFP2; IC50 VALUES, B cinerea, SMF + 1 mM CaCl2/50 mM KCl (Botrytis cinerea): >50 µg/mL; IC50 VALUES, B cinerea, SMF + 5 mM CaCl2/50 mM KCl (Botrytis cinerea): >100 µg/mL; IC50 VALUES, B cinerea, SMF (Botrytis cinerea): 1.6 µg/mL; activity against B cinerea compared with Rs-AFP2, in words (Botrytis cinerea): comparable to the activity of Rs-AFP2; IC50 VALUES, A pisi, SMF + 1 mM CaCl2/50 mM KCl (Ascochyta pisi): >50 µg/mL; IC50 VALUES, A pisi, SMF + 5 mM CaCl2/50 mM KCl (Ascochyta pisi): >100 µg/mL; IC50 VALUES, A pisi, SMF (Ascochyta pisi): 2.0 µg/mL; activity against A pisi compared with Rs-AFP2, in words (Ascochyta pisi): comparable to the activity of Rs-AFP2; IC50 VALUES, P betae, SMF + 1 mM CaCl2/50 mM KCl (Phoma betae): 40.0 µg/mL; IC50 VALUES, P betae, SMF + 5 mM CaCl2/50 mM KCl (Phoma betae): 70.0 µg/mL; IC50 VALUES, P betae, SMF (Phoma betae): 1.4 µg/mL; IC50 VALUES, V dahliae, SMF + 1 mM CaCl2/50 mM KCl (Verticillium dahliae): 2.3 µg/mL; IC50 VALUES, V dahliae, SMF + 5 mM CaCl2/50 mM KCl (Verticillium dahliae): 6.0 µg/mL; fold activity relative to Rs-AFP2 against V dahliae (Verticillium dahliae): five-fold more active; IC50 VALUES, V dahliae, SMF (Verticillium dahliae): 0.4 µg/mL"

# Source: patent US6864068B2, “Antifungal proteins” (Syngenta Limited, priority 1995, dated 2005)
